Measurements published in patent US20240043386A1, “Modulators of the Cystic Fibrosis Transmembrane Conductance Regulator Protein and Methods of Use” (AbbVie Global Enterprises Ltd., priority 2021, published 2024).
Read-outs that look alike come from different tables or passages of the source.

Legend:
[1] = target: T1, F508delCFTR (Homo sapiens, UniProt P13569, DEL508-508); experiment: Cell Surface Expression-Horse Radish Peroxidase (CSE-HRP) assay in CFBE41o-F508delCFTR-HRP cells; assay type: cell-based; conditions: for EC50: CFBE41o-F508delCFTR-HRP cells, 18-24 hours at 33° C., luminescence
T1 construct: expressed in transfected cells; host or cells: CFBE41o- human lung-derived epithelial cell line, doxycycline-inducible expression
T1 sequence (P13569 with tags, fused parts or gaps DEL508-508): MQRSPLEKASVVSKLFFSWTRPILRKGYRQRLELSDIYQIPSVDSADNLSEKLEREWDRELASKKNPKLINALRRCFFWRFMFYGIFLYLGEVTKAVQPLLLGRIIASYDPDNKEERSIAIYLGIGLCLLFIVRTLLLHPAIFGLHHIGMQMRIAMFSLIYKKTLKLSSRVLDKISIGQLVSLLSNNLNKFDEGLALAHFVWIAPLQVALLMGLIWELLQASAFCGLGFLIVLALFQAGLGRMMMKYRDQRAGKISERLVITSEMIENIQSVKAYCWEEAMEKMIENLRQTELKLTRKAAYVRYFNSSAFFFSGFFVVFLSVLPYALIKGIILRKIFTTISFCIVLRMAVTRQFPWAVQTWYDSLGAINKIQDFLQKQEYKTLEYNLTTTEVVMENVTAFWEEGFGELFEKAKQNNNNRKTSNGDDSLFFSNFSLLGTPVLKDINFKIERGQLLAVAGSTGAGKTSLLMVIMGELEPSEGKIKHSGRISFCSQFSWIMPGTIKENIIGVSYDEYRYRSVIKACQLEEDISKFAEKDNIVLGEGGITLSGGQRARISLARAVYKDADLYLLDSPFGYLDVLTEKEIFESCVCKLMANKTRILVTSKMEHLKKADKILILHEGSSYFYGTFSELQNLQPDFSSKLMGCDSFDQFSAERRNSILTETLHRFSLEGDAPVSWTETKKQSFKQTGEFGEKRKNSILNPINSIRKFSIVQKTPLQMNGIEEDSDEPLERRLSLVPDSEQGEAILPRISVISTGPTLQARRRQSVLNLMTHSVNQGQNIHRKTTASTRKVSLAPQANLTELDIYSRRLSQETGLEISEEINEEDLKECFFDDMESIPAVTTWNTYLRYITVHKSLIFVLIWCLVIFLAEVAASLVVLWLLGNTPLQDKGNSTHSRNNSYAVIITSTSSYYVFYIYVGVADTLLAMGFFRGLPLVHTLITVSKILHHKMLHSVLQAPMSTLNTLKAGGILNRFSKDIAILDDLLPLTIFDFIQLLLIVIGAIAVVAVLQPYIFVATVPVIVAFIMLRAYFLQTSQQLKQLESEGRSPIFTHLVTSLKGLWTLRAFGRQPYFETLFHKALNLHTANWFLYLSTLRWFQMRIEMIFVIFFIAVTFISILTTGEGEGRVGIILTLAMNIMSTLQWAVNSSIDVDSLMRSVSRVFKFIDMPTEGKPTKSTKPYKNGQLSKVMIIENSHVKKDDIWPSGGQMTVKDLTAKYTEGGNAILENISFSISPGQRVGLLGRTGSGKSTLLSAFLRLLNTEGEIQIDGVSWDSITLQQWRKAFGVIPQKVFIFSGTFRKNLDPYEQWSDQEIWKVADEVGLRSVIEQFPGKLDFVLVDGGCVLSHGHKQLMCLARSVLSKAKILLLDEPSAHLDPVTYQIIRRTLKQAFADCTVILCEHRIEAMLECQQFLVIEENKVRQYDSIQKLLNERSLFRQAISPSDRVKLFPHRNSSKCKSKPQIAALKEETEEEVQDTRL
Description: A cellular assay for measuring the F508delCFTR cell surface expression after correction with test compounds either without or with a co-corrector (2 μM of 3-[(2R,4R)-4-({[1-(2,2-difluoro-1,3-benzodioxol-5-yl)cyclopropyl]carbonyl}amino)-7-methoxy-3,4-dihydro-2H-chromen-2-yl]benzoic acid), was developed in human lung derived epithelial cell line (CFBE4lo-) (Veit G et al, (2012) Mol Biol Cell. 23(21): 4188-4202). The development was achieved by expressing the F508delCFTR mutation along with a horseradish peroxidase (HRP) in the fourth exofacial loop, and then measuring the HRP activity using luminescence readout from these cells, CFBE4lo-F508delCFTR-HRP, that were incubated overnight with the test corrector compounds, either without or with the co-corrector. For this primary assay, the CFBE4lo-F508delCFTR-HRP cells were plated in 384-well plates (Greiner Bio-one; Cat 781080) at 4,000 cells/well along with 0.5 μg/mL doxycycline to induce the F508delCFTR-RP expression and further incubated at 37° C., 5% CO2 for 68-72 hours. The test compounds were then added either without or with a co-corrector at the required concentrations and further incubated for 18-24 hours at 33° C. The highest concentration tested was 20 μM or 30 μM (GI-1 to GIII-36) with an 8-point concentration response curve using a 3-fold dilution in both the test compound without or with the co-corrector. Three replicate plates were run to determine one EC50. All plates contained negative controls (dimethyl sulfoxide, DMSO) and positive control (2 μM or 3 μM (GI-1 to GIII-36) of 3-[(2R,4R)-4-({[1-(2,2-difluoro-1,3-benzodioxol-5-yl)cyclopropyl]carbonyl}amino)-7-methoxy-3,4-dihydro-2H-chromen-2-yl]benzoic acid) as well as on-plate concentration response of the positive control. Post incubation, the plates were washed 5× times with Dulbecco's phosphate buffered saline (DPBS), followed by the addition of the HRP substrate, luminol (50 μL), and measuring the HRP activity using luminescence readout on EnVision® Multilabel Plate Reader (Perkin Elmer; product number 2104-0010). The raw counts from the experiment were analyzed using Accelrys® Assay Explorer v3.3.
Z′ greater than 0.5 was used as passing quality control criteria for the plates. The Z′ is defined as:
1−[3*SDPositive Control+3*SDNegative Control/Absolute (MeanPositive Control−MeanNegative Control)]
The % activity measured at each of the 8 test concentrations of the test compound added either without or with a co-corrector (2 μM or 3 μM (GI-1 to GIII-36) of 3-[(2R,4R)-4-({[1-(2,2-difluoro-1,3-benzodioxol-5-yl)cyclopropyl]carbonyl}amino)-7-methoxy-3,4-dihydro-2H-chromen-2-yl]benzoic acid) was normalized to the on-plate positive control using the following formulae:
% activity (Test compound without co-corrector)=[(test compound without co-corrector response−DMSO response)/(positive control response−DMSO response)]*100
% activity (Test compound with co-corrector)=[(test compound with co-corrector response−DMSO response)/(positive control response−DMSO response)]*100
The maximum % activity achieved for the test compound either without or with a co-corrector at any tested concentration is presented in Table 3 along with the respective EC50's calculated using the following general sigmoidal curve with variable Hill slope equation (described as Model 42 in the Accelrys® Assay Explorer v3.3 software):
General sigmoidal curve with concentration, response, top, bottom, EC50 and Hill slope. This model describes a sigmoidal curve with an adjustable baseline, a. The equation can be used to fit curves where response is either increasing or decreasing with respect to the independent variable, “x”.

[2] = target: T2, F508del/F508del CFTR (Homo sapiens, UniProt P13569, DEL508-508); experiment: Trans-Epithelial Current Clamp (TECC) assay using primary human bronchial epithelial cells; assay type: cell-based; conditions: for Emax (% Dual): maximum percent activity relative to positive control (co-corrector 0.15 μM + potentiator 0.45 μM = 100%), primary hBE cells F508del/F508del; for EC50: primary hBE cells homozygous F508del/F508del, test C2 corrector with co-corrector and potentiator, 18-24 hours at 37° C., equivalent CFTR current (IEQ)/AUC
T2 construct: cells isolated from CF patients with the homozygous mutation; endogenous in cells; host or cells: primary human bronchial epithelial (hBE) cells from CF patients homozygous for F508del
T2 sequence (P13569 with tags, fused parts or gaps DEL508-508): as above
How it was run: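 Readout is the equivalent CFTR current (IEQ, from offset-corrected VT and RT) plus AUC from forskolin peak to bumetanide addition, recorded on TECC-24 at 36.5° C. Beforehand, homozygous F508del hBE cultures received correctors with co-corrector and potentiator basolaterally for 18-24 h at 37° C.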

[3] = with co-corrector (2 μM), read-out: EC50 (with co-corrector)
[4] = without co-corrector, read-out: EC50 (without co-corrector)
[5] = without co-corrector, normalized to on-plate positive control corrector (2 μM)
[6] = without co-corrector, normalized to on-plate positive control corrector (2 μM), 2 µM

Structure (SMILES) | EC50 [1, 3] | Maximum % activity (with co-corrector) ([1]; with co-corrector (2 μM), normalized to on-plate positive control corrector (2 μM)) | EC50 [1, 4] | Maximum % activity (without co-corrector) [1, 5] | Emax (% Dual) [2] | EC50 [2] | Maximum % activity (without co-corrector) [1, 6]
COc1ccc(C)cc1[C@]1(C(=O)NS(=O)(=O)c2cccc3nc(C)ccc23)C[C@@H]1c1cnc(C)cn1 (racemic) [Example 89, rac-(1r,2r)-1-(2-methoxy-5-methylphenyl)-2-(5-methylpyrazin-2-yl)-N-(2-methylquinoline-5-sulfonyl)cyclopropane-1-carboxamide] | 1.26 µM | 935% | 2.24 µM | 447% | 322 % Dual | 0.142 µM | –
COc1nccc([C@@H]2C[C@]2(C(=O)NS(=O)(=O)c2cccc3nc(C)ccc23)c2cc(C)ccc2OC)n1 (racemic) [Example 95, rac-(1r,2r)-1-(2-methoxy-5-methylphenyl)-2-(2-methoxypyrimidin-4-yl)-N-(2-methylquinoline-5-sulfonyl)cyclopropane-1-carboxamide] | 0.855 µM | – | 1.81 µM | 749% | 209 % Dual | 0.0126 µM | –
COc1ccc([C@@H]2C[C@]2(C(=O)NS(=O)(=O)c2cccc3nc(C)ccc23)c2cc(C)ccc2OC)cc1 (single isomer, unassigned) [Example 16] | 0.393 µM | – | 0.328 µM | – | 308 % Dual | 0.0084 µM | 784%
COc1ccc([C@@H]2C[C@]2(C(=O)NS(=O)(=O)c2cccc3nc(C)ccc23)c2cc(C)ccc2OC)cc1 (single isomer, unassigned) [Example 17] | – | – | 2.38 µM | – | 296 % Dual | 0.00066 µM | –
COc1ccc(C)cc1[C@]1(C(=O)NS(=O)(=O)c2cccc3nc(C)ccc23)C[C@@H]1c1ccc(C(F)(F)F)cc1 (single isomer, unassigned) [Example 18] | – | – | 0.198 µM | – | 270 % Dual | 0.0013 µM | –
COc1ccc(C)cc1[C@@]1(C(=O)NS(=O)(=O)c2cccc3nc(C)ccc23)C[C@H]1c1ccc(C(F)(F)F)cc1 (single isomer, unassigned) [Example 19] | 0.588 µM | – | 1.01 µM | – | 215 % Dual | 0.0096 µM | –
COc1ccc(C)cc1[C@]1(C(=O)NS(=O)(=O)c2cccc3nc(C)ccc23)C[C@@H]1c1cccc(C(F)(F)F)c1 (single isomer, unassigned) [Example 23] | 0.259 µM | – | 0.327 µM | – | 294 % Dual | 0.0062 µM | –
COc1ccc(C)cc1[C@@]1(C(=O)NS(=O)(=O)c2cccc3nc(C)ccc23)C[C@H]1c1cccc(C(F)(F)F)c1 (single isomer, unassigned) [Example 24] | 0.201 µM | – | 0.583 µM | – | 286 % Dual | 0.002 µM | –
COc1ccc(C)cc1[C@]1(C(=O)NS(=O)(=O)c2cccc3nc(C)ccc23)C[C@@H]1c1ccccc1C(F)(F)F (single isomer, unassigned) [Example 30] | 0.26 µM | – | 0.263 µM | 589% | 313 % Dual | 0.0466 µM | –
COc1ccc(C)cc1[C@@]1(C(=O)NS(=O)(=O)c2cccc3nc(C)ccc23)C[C@H]1c1ccccc1C(F)(F)F (single isomer, unassigned) [Example 31] | 0.163 µM | – | 0.239 µM | 776% | 307 % Dual | 0.0062 µM | –

Second part, the compound after the results:

EC50 [1, 3] | Maximum % activity (with co-corrector) ([1]; with co-corrector (2 μM), normalized to on-plate positive control corrector (2 μM)) | EC50 [1, 4] | Maximum % activity (without co-corrector) [1, 5] | Emax (% Dual) [2] | EC50 [2] | Maximum % activity (without co-corrector) [1, 6] | Structure (SMILES)
0.497 µM | – | 0.626 µM | 523% | 250 % Dual | 0.0129 µM | – | COc1ccc(C)cc1[C@@]1(C(=O)NS(=O)(=O)c2cccc3nc(C)ccc23)C[C@H]1c1ccccc1 (single isomer, unassigned) [Example 2]
0.994 µM | – | 2.45 µM | – | 360 % Dual | 0.000992 µM | – | COc1ccc(C)cc1[C@]1(C(=O)NS(=O)(=O)c2cccc3nc(C)ccc23)C[C@@H]1c1ccccc1 (single isomer, unassigned) [Example 3]
0.202 µM | – | 0.187 µM | 982% | 378 % Dual | 0.0053 µM | – | COc1ccc(C)cc1[C@@]1(C(=O)NS(=O)(=O)c2cccc3nc(C)ccc23)C[C@H]1c1ccc(C)cc1 (single isomer, unassigned) [Example 6]
0.926 µM | – | 1.45 µM | – | 487 % Dual | 0.0008 µM | – | COc1ccc(C)cc1[C@]1(C(=O)NS(=O)(=O)c2cccc3nc(C)ccc23)C[C@@H]1c1ccc(C)cc1 (single isomer, unassigned) [Example 7]
0.203 µM | – | 0.244 µM | – | 250 % Dual | 0.001 µM | 716% | COc1ccc(C)cc1[C@@]1(C(=O)NS(=O)(=O)c2cccc3nc(C)ccc23)C[C@H]1c1cccc(F)c1 (single isomer, unassigned) [Example 20]
0.506 µM | – | 1.09 µM | – | 213 % Dual | 0.002 µM | – | COc1ccc(C)cc1[C@@]1(C(=O)NS(=O)(=O)c2cccc3nc(C)ccc23)C[C@H]1c1cccc(F)c1 (single isomer, unassigned) [Example 21]
0.388 µM | – | 1.01 µM | – | 305 % Dual | 0.0043 µM | – | COc1ccc(C)cc1[C@]1(C(=O)NS(=O)(=O)c2cccc3nc(C)ccc23)C[C@@H]1c1ccccc1F (single isomer, unassigned) [Example 25]
0.337 µM | – | 0.368 µM | 515% | 293 % Dual | 0.0028 µM | – | COc1ccc(C)cc1[C@@]1(C(=O)NS(=O)(=O)c2cccc3nc(C)ccc23)C[C@H]1c1ccccc1F (single isomer, unassigned) [Example 26]
0.429 µM | – | 0.405 µM | 465% | 275 % Dual | 0.0157 µM | – | COc1cccc([C@@H]2C[C@]2(C(=O)NS(=O)(=O)c2cccc3nc(C)ccc23)c2cc(C)ccc2OC)c1 (single isomer, unassigned) [Example 27]
0.417 µM | – | 0.951 µM | – | 304 % Dual | 0.0026 µM | – | COc1cccc([C@H]2C[C@@]2(C(=O)NS(=O)(=O)c2cccc3nc(C)ccc23)c2cc(C)ccc2OC)c1 (single isomer, unassigned) [Example 28]
